Results reported in PubChem BioAssay (NCI).
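48-hour exposure; five concentrations; linearly interpolated endpoints. The concentration for 50% growth inhibition is given as GI50. TGI denotes the concentration required for complete inhibition of growth.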

Experiments:
Assay in all cases: inhibition of tumour cell growth, NCI panel, 48 h
SF-539 CNS = test system: SF-539 CNS
SF-295 CNS = test system: SF-295 CNS
DU-145 prostate = test system: DU-145 prostate
OVCAR-5 ovarian = test system: OVCAR-5 ovarian
UO-31 renal = test system: UO-31 renal
PC-3 prostate = test system: PC-3 prostate
NCI-H226 lung = test system: NCI-H226 lung
MOLT-4 leukemia = test system: MOLT-4 leukemia
RPMI-8226 leukemia = test system: RPMI-8226 leukemia
SF-268 CNS = test system: SF-268 CNS
HCT-15 colon = test system: HCT-15 colon
RXF 393 renal = test system: RXF 393 renal
CCRF-CEM leukemia = test system: CCRF-CEM leukemia
UACC-62 melanoma = test system: UACC-62 melanoma
NCI-H23 lung = test system: NCI-H23 lung
HCC-2998 colon = test system: HCC-2998 colon
ACHN renal = test system: ACHN renal
HOP-92 NSCLC = test system: HOP-92 NSCLC
KM12 colon = test system: KM12 colon
SN12C renal = test system: SN12C renal
SNB-75 CNS = test system: SNB-75 CNS
SK-OV-3 ovarian = test system: SK-OV-3 ovarian
BT-549 breast = test system: BT-549 breast
TK-10 renal = test system: TK-10 renal
HS 578T breast = test system: HS 578T breast
MDA-MB-435 = test system: MDA-MB-435
HOP-62 NSCLC = test system: HOP-62 NSCLC
SK-MEL-28 melanoma = test system: SK-MEL-28 melanoma
786-0 renal = test system: 786-0 renal
OVCAR-3 ovarian = test system: OVCAR-3 ovarian
HT29 colon = test system: HT29 colon
NCI-H460 lung = test system: NCI-H460 lung
K-562 leukemia = test system: K-562 leukemia
IGROV1 ovarian = test system: IGROV1 ovarian
T-47D breast = test system: T-47D breast
MDA-MB-231 breast = test system: MDA-MB-231 breast
SR leukemia = test system: SR leukemia
M14 melanoma = test system: M14 melanoma
CAKI-1 renal = test system: CAKI-1 renal
SW-620 colon = test system: SW-620 colon
OVCAR-8 ovarian = test system: OVCAR-8 ovarian
NCI/ADR-RES ovarian = test system: NCI/ADR-RES ovarian
A549 NSCLC = test system: A549 NSCLC
U251 CNS = test system: U251 CNS
NCI-H522 lung = test system: NCI-H522 lung
MALME-3M melanoma = test system: MALME-3M melanoma
SK-MEL-2 melanoma = test system: SK-MEL-2 melanoma
LOX IMVI melanoma = test system: LOX IMVI melanoma
EKVX NSCLC = test system: EKVX NSCLC
MCF7 breast = test system: MCF7 breast
HL-60(TB) leukemia = test system: HL-60(TB) leukemia
COLO 205 colon = test system: COLO 205 colon
A498 renal = test system: A498 renal
OVCAR-4 ovarian = test system: OVCAR-4 ovarian
SNB-19 CNS = test system: SNB-19 CNS
HCT-116 colon = test system: HCT-116 colon

`Cc1nc2n(c(=O)c1CCN1CCC(c3noc4cc(F)ccc34)CC1)CCCC2` gave a GI50 (SF-539 CNS) of over 50 µM, a TGI (SF-539 CNS) of over 50 µM and a GI50 (SF-295 CNS) of over 50 µM. For the same molecule, the TGI (SF-295 CNS) was over 50 µM, the GI50 (DU-145 prostate) was over 50 µM and the TGI (DU-145 prostate) was over 50 µM. The GI50 (OVCAR-5 ovarian) was over 50 µM, the TGI (OVCAR-5 ovarian) was over 50 µM and the GI50 (UO-31 renal) was over 50 µM. The TGI (UO-31 renal) was over 50 µM, the GI50 (PC-3 prostate) was over 50 µM and the TGI (PC-3 prostate) was over 50 µM. For the same molecule, the GI50 (NCI-H226 lung) was over 50 µM, the TGI (NCI-H226 lung) was over 50 µM and the GI50 (MOLT-4 leukemia) was over 50 µM. It also gave a TGI (MOLT-4 leukemia) of over 50 µM, a GI50 (RPMI-8226 leukemia) of over 50 µM and a TGI (RPMI-8226 leukemia) of over 50 µM. For the same molecule, the GI50 (SF-268 CNS) was over 50 µM, the TGI (SF-268 CNS) was over 50 µM and the GI50 (HCT-15 colon) was over 50 µM. It also gave a TGI (HCT-15 colon) of over 50 µM, a GI50 (RXF 393 renal) of over 50 µM and a TGI (RXF 393 renal) of over 50 µM. The GI50 (CCRF-CEM leukemia) was over 50 µM, the TGI (CCRF-CEM leukemia) was over 50 µM and the GI50 (UACC-62 melanoma) was over 50 µM. The TGI (UACC-62 melanoma) was over 50 µM, the GI50 (NCI-H23 lung) was over 50 µM and the TGI (NCI-H23 lung) was over 50 µM. It also gave a GI50 (HCC-2998 colon) of over 50 µM, a TGI (HCC-2998 colon) of over 50 µM and a GI50 (ACHN renal) of over 50 µM. For the same molecule, the TGI (ACHN renal) was over 50 µM, the GI50 (HOP-92 NSCLC) was over 50 µM and the TGI (HOP-92 NSCLC) was over 50 µM. For the same molecule, the GI50 (KM12 colon) was over 50 µM, the TGI (KM12 colon) was over 50 µM and the GI50 (SN12C renal) was over 50 µM. It also gave a TGI (SN12C renal) of over 50 µM, a GI50 (SNB-75 CNS) of over 50 µM and a TGI (SNB-75 CNS) of over 50 µM. It also gave a GI50 (SK-OV-3 ovarian) of over 50 µM, a TGI (SK-OV-3 ovarian) of over 50 µM and a GI50 (BT-549 breast) of over 50 µM. It also gave a TGI (BT-549 breast) of over 50 µM, a GI50 (TK-10 renal) of over 50 µM and a TGI (TK-10 renal) of over 50 µM. The GI50 (HS 578T breast) was over 50 µM, the TGI (HS 578T breast) was over 50 µM and the GI50 (MDA-MB-435) was over 50 µM. The TGI (MDA-MB-435) was over 50 µM, the GI50 (HOP-62 NSCLC) was over 50 µM and the TGI (HOP-62 NSCLC) was over 50 µM. For the same molecule, the GI50 (SK-MEL-28 melanoma) was over 50 µM, the TGI (SK-MEL-28 melanoma) was over 50 µM and the GI50 (786-0 renal) was over 50 µM. It also gave a TGI (786-0 renal) of over 50 µM, a GI50 (OVCAR-3 ovarian) of over 50 µM and a TGI (OVCAR-3 ovarian) of over 50 µM. It also gave a GI50 (HT29 colon) of over 50 µM, a TGI (HT29 colon) of over 50 µM and a GI50 (NCI-H460 lung) of over 50 µM. The TGI (NCI-H460 lung) was over 50 µM, the GI50 (K-562 leukemia) was over 50 µM and the TGI (K-562 leukemia) was over 50 µM. The GI50 (IGROV1 ovarian) was over 50 µM, the TGI (IGROV1 ovarian) was over 50 µM and the GI50 (T-47D breast) was over 50 µM. For the same molecule, the TGI (T-47D breast) was over 50 µM, the GI50 (MDA-MB-231 breast) was over 50 µM and the TGI (MDA-MB-231 breast) was over 50 µM. It also gave a GI50 (SR leukemia) of over 50 µM, a TGI (SR leukemia) of over 50 µM and a GI50 (M14 melanoma) of over 50 µM. For the same molecule, the TGI (M14 melanoma) was over 50 µM, the GI50 (CAKI-1 renal) was over 50 µM and the TGI (CAKI-1 renal) was over 50 µM. The GI50 (SW-620 colon) was over 50 µM, the TGI (SW-620 colon) was over 50 µM and the GI50 (OVCAR-8 ovarian) was over 50 µM. For the same molecule, the TGI (OVCAR-8 ovarian) was over 50 µM, the GI50 (NCI/ADR-RES ovarian) was over 50 µM and the TGI (NCI/ADR-RES ovarian) was over 50 µM. The GI50 (A549 NSCLC) was over 50 µM, the TGI (A549 NSCLC) was over 50 µM and the GI50 (U251 CNS) was over 50 µM. It also gave a TGI (U251 CNS) of over 50 µM, a GI50 (NCI-H522 lung) of over 50 µM and a TGI (NCI-H522 lung) of over 50 µM. For the same molecule, the GI50 (MALME-3M melanoma) was over 50 µM, the TGI (MALME-3M melanoma) was over 50 µM and the GI50 (SK-MEL-2 melanoma) was over 50 µM. For the same molecule, the TGI (SK-MEL-2 melanoma) was over 50 µM, the GI50 (LOX IMVI melanoma) was over 50 µM and the TGI (LOX IMVI melanoma) was over 50 µM. For the same molecule, the GI50 (EKVX NSCLC) was over 50 µM, the TGI (EKVX NSCLC) was over 50 µM and the GI50 (MCF7 breast) was over 50 µM. For the same molecule, the TGI (MCF7 breast) was over 50 µM, the GI50 (HL-60(TB) leukemia) was over 50 µM and the TGI (HL-60(TB) leukemia) was over 50 µM. For the same molecule, the GI50 (COLO 205 colon) was over 50 µM, the TGI (COLO 205 colon) was over 50 µM and the GI50 (A498 renal) was over 50 µM. It also gave a TGI (A498 renal) of over 50 µM, a GI50 (OVCAR-4 ovarian) of over 50 µM and a TGI (OVCAR-4 ovarian) of over 50 µM. For the same molecule, the GI50 (SNB-19 CNS) was over 50 µM, the TGI (SNB-19 CNS) was over 50 µM and the GI50 (HCT-116 colon) was over 50 µM. It also gave a TGI (HCT-116 colon) of over 50 µM.
